# Where two headings read alike, the source gives them in different places.
# Legend:
# Type in all cases: cell-based
# [1] = system: Pf 3D7-A10 ABS parasites; assay: 72-h ABS growth inhibition assay, 3D7-A10; settings: Plasmodium falciparum, 3D7, Line 3D7-A10 wild-type
# Experimental: Synchronicity was achieved using three rounds of sorbitol treatment on early rings, spaced 48 h apart, followed by magnetic purification of segmented schizonts following the final sorbitol treatment. […] Assays were repeated on at least three independent occasions (each with technical duplicates) and statistical significance was assessed using Mann Whitney U tests.
# [2] = system: ed. Dd2-B2 TKL3I1250M; assay: 72-h ABS assay, CRISPR/Cas9-edited line; settings: Plasmodium falciparum, parent Dd2-B2 wild-type
# Experimental: (§1) Synchronicity was achieved using three rounds of sorbitol treatment on early rings, spaced 48 h apart, followed by magnetic purification of segmented schizonts following the final sorbitol treatment. Parasites were highly synchronous to within a 3 h window of development. Assays were repeated on at least three independent occasions (each with technical duplicates) and statistical significance was assessed using Mann Whitney U tests.
# (§2) The resulting MMV030084-resistant parasites were cloned by limiting dilution ([Baker et al., 2017]) to obtain genetically homogenous cultures for further phenotyping and whole-genome sequencing. A second round of […]. […] Drug susceptibility of resistant lines was assessed using a 72 h ABS assay as described above, and a Mann Whitney U test was applied to assess statistically significant differences.
# (§3) A CRISPR/Cas9 targeted gene editing strategy using an all-in-one plasmid approach was applied to introduce T1268R, I1250M and T1268R+I1250M in wild-type Dd2-B2 parasites or to produce a TKL3 KO line by inserting a stop codon and frameshift at amino acid position 1268. […] WR99210 (2.5 nM) was added to the culture medium 24 h after electroporation to select for successfully transfected parasites and was maintained in the medium until edited parasites were detected. […]
# [3] = system: ed. Dd2-B2 TKL3T1268R; assay: 72-h ABS assay, CRISPR/Cas9-edited line; settings: Plasmodium falciparum, parent Dd2-B2 wild-type
# Experimental: as §1, §2, §3
# [4] = system: Pf NF54 male gametes; assay: Dual gamete formation assay, male gamete exflagellation; settings: Plasmodium falciparum
# Experimental: Pf NF54 gametocytes were generated as reported elsewhere ([Delves et al., 2016]). Briefly, static cultures of unsynchronized asexual parasites were continuously maintained as above. Parasites were cultured at 1% ring-stage parasitemias and 4% (v/v) hematocrit prior to the induction of gametocytes. To prepare gametocytes, 75% of the media was replaced daily for 14 subsequent days without adding fresh RBCs. During this process the temperature was kept strictly constant, as the rate of exflagellation is highly temperature-dependent. Between days 1 and 4 after culture induction, the asexual parasitemias increased rapidly to a peak. By day 7, as the asexual population waned, early-stage gametocytes became observable. By day 8, gametocyte maturation had progressed, and by day 14 morphologically distinguishable, mature stage V male and female gametocytes were present. […] Control reactions contained DMSO or 20 μM methylene blue (as negative and positive controls, respectively). […] After imaging, the plate was incubated at 18°C for a further 24 h to allow female gametes to maximally express Pfs25, followed by fluorescence microscopy imaging using a 10× objective. Both time lapse images of exflagellation and fluorescence images of female gametes were automatically quantified using custom scripts in ICY BioImage Analysis ([Delves et al., 2016]).
compound,measurement,setting,value
CC(C)(CN)c1nc(-c2ccc(Cl)c(O)c2)c(-c2ccncc2)[nH]1 [MMV030084],IC50,[1],178 nM
same,IC50,[2],307 nM
same,IC50,[3],317 nM
same,IC50,"[4]; carry-over: gametogenesis induced in the presence of compound, read-out: IC50, male gamete exflagellation",141 nM
same,IC50,"[4]; compound washed out before gamete formation, read-out: IC50, male gamete formation, wash-out",> 10000 nM

# From article PMC7369637, “Inhibition of Resistance-Refractory P. falciparum Kinase PKG Delivers Prophylactic, Blood Stage, and Transmission-Blocking Antiplasmodial Activity” (Cell Chemical Biology, 2020)
